ChEMBL document CHEMBL1201862, “PubChem BioAssay data set” (2004)
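All cell lines were grown in 96-well plates and treated with compound for 48 hours. GI50 marks 50% less growth.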 Activity calls are given as the source filed them. Rule as the data show it: active = GI50 up to about 1.1 µM and inactive = higher.

Key:
Assay in all cases: growth of human tumour cells (NCI), 48 h
IGROV-1 = test system: IGROV-1
OVCAR-3 = test system: OVCAR-3
CCRF-CEM = test system: CCRF-CEM
MDA-MB-231 = test system: MDA-MB-231
NCI-H226 = test system: NCI-H226
NCI-H460 = test system: NCI-H460
786-0 = test system: 786-0
OVCAR-5 = test system: OVCAR-5
EKVX = test system: EKVX
A549 = test system: A549
PC-3 = test system: PC-3
U-251 = test system: U-251
SK-MEL-5 = test system: SK-MEL-5
SNB-19 = test system: SNB-19
UACC-257 = test system: UACC-257
COLO 205 = test system: COLO 205
HCT-15 = test system: HCT-15
CAKI-1 = test system: CAKI-1
HL-60 = test system: HL-60
LOX IMVI = test system: LOX IMVI
Hs-578T = test system: Hs-578T
KM12 = test system: KM12
M14 = test system: M14
Malme-3M = test system: Malme-3M
SF-539 = test system: SF-539
HOP-62 = test system: HOP-62
MDA-N = test system: MDA-N
SW-620 = test system: SW-620
HCC 2998 = test system: HCC 2998
TK-10 = test system: TK-10
RXF 393 = test system: RXF 393
MCF7 = test system: MCF7
SK-OV-3 = test system: SK-OV-3
UO-31 = test system: UO-31
A498 = test system: A498
MDA-MB-435 = test system: MDA-MB-435
OVCAR-8 = test system: OVCAR-8
MOLT-4 = test system: MOLT-4
HOP-92 = test system: HOP-92
SN12C = test system: SN12C
K562 = test system: K562
HCT-116 = test system: HCT-116
OVCAR-4 = test system: OVCAR-4
SR = test system: SR
NCI-H23 = test system: NCI-H23
SF-268 = test system: SF-268
SK-MEL-28 = test system: SK-MEL-28
UACC-62 = test system: UACC-62
SK-MEL-2 = test system: SK-MEL-2
DU-145 = test system: DU-145
NCI/ADR-RES = test system: NCI/ADR-RES
ACHN = test system: ACHN
SF-295 = test system: SF-295
HT-29 = test system: HT-29
NCI-H522 = test system: NCI-H522
T47D = test system: T47D
BT-549 = test system: BT-549
RPMI-8226 = test system: RPMI-8226
SNB-75 = test system: SNB-75

Compound: CS(=O)(=O)OCC1CCCCCCCCCCC12SCCCS2 (stereo not given)
- GI50 (IGROV-1): > 100 µM (inactive)
- GI50 (OVCAR-3): > 100 µM (inactive)
- GI50 (CCRF-CEM): > 100 µM (inactive)
- GI50 (MDA-MB-231): > 100 µM (inactive)
- GI50 (NCI-H226): > 100 µM (inactive)
- GI50 (NCI-H460): > 100 µM (inactive)
- GI50 (786-0): > 100 µM (inactive)
- GI50 (OVCAR-5): > 100 µM (inactive)
- GI50 (EKVX): > 100 µM (inactive)
- GI50 (A549): > 100 µM (inactive)
- GI50 (PC-3): > 100 µM (inactive)
- GI50 (U-251): > 100 µM (inactive)
- GI50 (SK-MEL-5): > 100 µM (inactive)
- GI50 (SNB-19): > 100 µM (inactive)
- GI50 (UACC-257): > 100 µM (inactive)
- GI50 (COLO 205): > 100 µM (inactive)
- GI50 (HCT-15): > 100 µM
- GI50 (CAKI-1): > 100 µM (inactive)
- GI50 (HL-60): > 100 µM (inactive)
- GI50 (LOX IMVI): > 100 µM (inactive)
- GI50 (Hs-578T): > 100 µM (inactive)
- GI50 (KM12): > 100 µM (inactive)
- GI50 (M14): > 100 µM (inactive)
- GI50 (Malme-3M): > 100 µM (inactive)
- GI50 (SF-539): > 100 µM (inactive)
- GI50 (HOP-62): > 100 µM (inactive)
- GI50 (MDA-N): > 100 µM (inactive)
- GI50 (SW-620): > 100 µM (inactive)
- GI50 (HCC 2998): > 100 µM (inactive)
- GI50 (TK-10): > 100 µM (inactive)
- GI50 (RXF 393): > 100 µM (inactive)
- GI50 (MCF7): > 100 µM (inactive)
- GI50 (SK-OV-3): > 100 µM (inactive)
- GI50 (UO-31): > 100 µM (inactive)
- GI50 (A498): > 100 µM (inactive)
- GI50 (MDA-MB-435): > 100 µM (inactive)
- GI50 (OVCAR-8): > 100 µM (inactive)
- GI50 (MOLT-4): > 100 µM (inactive)
- GI50 (HOP-92): > 100 µM (inactive)
- GI50 (SN12C): > 100 µM (inactive)
- GI50 (K562): > 100 µM (inactive)
- GI50 (HCT-116): > 100 µM (inactive)
- GI50 (OVCAR-4): > 100 µM (inactive)
- GI50 (SR): > 100 µM (inactive)
- GI50 (NCI-H23): > 100 µM (inactive)
- GI50 (SF-268): > 100 µM (inactive)
- GI50 (SK-MEL-28): > 100 µM (inactive)
- GI50 (UACC-62): > 100 µM (inactive)
- GI50 (SK-MEL-2): > 100 µM (inactive)
- GI50 (DU-145): > 100 µM (inactive)
- GI50 (NCI/ADR-RES): > 100 µM (inactive)
- GI50 (ACHN): > 100 µM (inactive)
- GI50 (SF-295): > 100 µM (inactive)
- GI50 (HT-29): > 100 µM (inactive)
- GI50 (NCI-H522): > 100 µM (inactive)
- GI50 (T47D): > 100 µM (inactive)

Compound: ClC1=NSSC1(Cl)Cl
- GI50 (IGROV-1): 61 µM (inactive)
- GI50 (OVCAR-3): 25.2 µM (inactive)
- GI50 (BT-549): 41.6 µM (inactive)
- GI50 (CCRF-CEM): 6.47 µM (inactive)
- GI50 (MDA-MB-231): 30.8 µM (inactive)
- GI50 (NCI-H226): > 100 µM (inactive)
- GI50 (NCI-H460): 36.9 µM (inactive)
- GI50 (786-0): 23.6 µM (inactive)
- GI50 (OVCAR-5): 29.9 µM (inactive)
- GI50 (EKVX): 58.3 µM (inactive)
- GI50 (A549): > 100 µM (inactive)
- GI50 (RPMI-8226): 23.5 µM (inactive)
- GI50 (PC-3): 61.7 µM (inactive)
- GI50 (U-251): 56.6 µM (inactive)
- GI50 (SK-MEL-5): 14.1 µM (inactive)
- GI50 (SNB-19): 90.4 µM (inactive)
- GI50 (UACC-257): 51.8 µM (inactive)
- GI50 (COLO 205): 14.7 µM (inactive)
- GI50 (HCT-15): 18.4 µM
- GI50 (CAKI-1): 18.5 µM (inactive)
- GI50 (HL-60): 2.4 µM (inactive)
- GI50 (LOX IMVI): 40.8 µM (inactive)
- GI50 (KM12): 71.1 µM (inactive)
- GI50 (M14): 19.8 µM (inactive)
- GI50 (Malme-3M): 28.6 µM (inactive)
- GI50 (SF-539): 40.5 µM (inactive)
- GI50 (HOP-62): > 100 µM (inactive)
- GI50 (MDA-N): 27.7 µM (inactive)
- GI50 (SW-620): 20.7 µM (inactive)
- GI50 (HCC 2998): > 100 µM (inactive)
- GI50 (RXF 393): 46.1 µM (inactive)
- GI50 (MCF7): 32.3 µM (inactive)
- GI50 (UO-31): 26.7 µM (inactive)
- GI50 (A498): > 100 µM (inactive)
- GI50 (MDA-MB-435): 41.8 µM (inactive)
- GI50 (OVCAR-8): 24.4 µM (inactive)
- GI50 (MOLT-4): 14.8 µM (inactive)
- GI50 (HOP-92): > 10 µM (inactive)
- GI50 (SN12C): 22.1 µM (inactive)
- GI50 (K562): 5.9 µM (inactive)
- GI50 (HCT-116): 30.6 µM (inactive)
- GI50 (OVCAR-4): 44.2 µM (inactive)
- GI50 (SR): 21 µM (inactive)
- GI50 (NCI-H23): > 100 µM (inactive)
- GI50 (SNB-75): 41.7 µM (inactive)
- GI50 (SK-MEL-28): > 10 µM (inactive)
- GI50 (UACC-62): 45.7 µM (inactive)
- GI50 (SK-MEL-2): > 100 µM (inactive)
- GI50 (DU-145): > 100 µM (inactive)
- GI50 (NCI/ADR-RES): 34.8 µM (inactive)
- GI50 (ACHN): 20.4 µM (inactive)
- GI50 (SF-295): 61.5 µM (inactive)
- GI50 (HT-29): 30.5 µM (inactive)
- GI50 (NCI-H522): 7.6 µM (inactive)
